# According to patent US20170209579A1, “NON-INVASIVE RADIOFREQUENCY FIELD TREATMENT FOR CANCER THERAPY” (Baylor College of Medicine, priority 2014, published 2017):
# Assays:
# [1] = tested on: SNU449 cells; assay: Clonogenic assay, SNU449 cells; assay type: cell-based, human; details: irrespective of dose schedule
# Procedure: Clonogenic assay estimates single-cell reproductive viability by measuring the ability of a single cell to form a colony of 50 cells or more. Clonogenic assay in this study was performed as described previously (Franken et al., 2006). Briefly, cancer cells from an exponentially growing, sub-confluent culture were trypsinized and harvested. Approximately 200 cells were counted and plated in each well of a 6-well plate. Approximately 12 hours later, the cells were adherent and treatment conditions were introduced as described herein. After varying treatments, media was replaced and cells were allowed 14 days to form colonies. Subsequently, the media was aspirated and cells were washed with PBS once. Colonies were then fixed with glutaraldehyde (6.0% v/v) and stained with crystal violet (0.5% w/v) for 30 minutes on a leveled shaker at 50 RPM. The fixation and staining solution was then aspirated and the 6-well plates were air-dried after gentle rinsing with tap water. The number of colonies in each well was counted using a colony counting grid. […]
# Clonogenic assays were performed on Hep3B cells and SNU449 cells after one of two combinations of hyperthermia and gemcitabine compared with hyperthermia or gemcitabine alone. […] Next, clonogenic viability was evaluated at a gemcitabine concentration of 5 ng/ml and varied the duration of hyperthermia (30 minutes to 4 hours).
# [2] = tested on: HepG2 xenograft; assay: Orthotopic HepG2 xenografts in CB17 SCID mice, tumor mass; assay type: in vivo, mouse
# Source text: For in vivo studies, an implanted mouse model of human HCC was generated in CB17SCID mice (Taconic, Hudson, N.Y.). Female mice between 4 and 5 weeks in age were purchased and acclimatized in M.D. Anderson Animal facilities for up to one week. All animals were handled, housed and studied in accordance with the Institutional Animal Care and Use Committee. Tumors were generated after orthotopic implantation of approximately 1.6 million cells into the liver of each mouse (10 mice per group). Bioluminescence imaging indicated tumor development in the majority of mice three weeks after implantation. Euthanasia was performed by carbon dioxide inhalation followed by cervical spine dislocation.
# Cultured luciferase and GFP-expression human HCC cell lines (Hep3B and HepG2) were harvested from an exponentially growing culture and washed with PBS. The cells were re-suspended in 3 ml PBS and final centrifugation was performed at 1000 RPM for 5 minutes. Supernatant was discarded and the cell pellet was used for implantation. The concentration of cells achieved using this protocol was 160,000 cells per micro liter. The cells were kept on ice and animals were injected within 3-4 hours after final centrifugation.
# Before surgery, hair was removed from the ventral surface of the abdomen using clippers. Mice were anesthetized using 2.5% isoflurane. The surgical field was sterilized with 70% (v/v) ethanol in water. Mice were placed supine on a heating pad and the surgical site was sterilized using povidone iodine swab sticks. After confirming induction of anesthesia, an approximately 1-cm transverse incision was made in the skin of the upper abdomen slightly left of the midline. Deeper layers of muscle and peritoneum were incised and hemostasis was achieved using silver nitrate chemical cautery sticks. By applying gentle pressure on the lower abdomen and lower chest, the left lobe of the liver was eviscerated. […]
# Mice with confirmed tumors on bioluminescence were then randomized in groups of 10. […] Sample size was calculated using Stata SE 12.1 for Mac (College Station, Tex.). […]
smiles,measurement,setting,value
"Nc1ccn([C@@H]2O[C@H](CO)[C@@H](O)C2(F)F)c(=O)n1 [gemcitabine, 2′,2′-difluoro 2′-deoxycytidine]","clonogenic survival, gemcitabine combined with hyperthermia",[1],dose-dependent enhancement of gemcitabine toxicity
same,Mean tumor mass [±SD],"[2]; RF then gemcitabine, weekly for three weeks",107 ± 64 mg
same,Mean tumor mass [±SD],"[2]; gemcitabine alone, weekly treatments for three weeks",170 ± 51 mg
same,Mean tumor mass [±SD],"[2]; gemcitabine then RF, weekly for three weeks",74 ± 45 mg
